From PubChem BioAssay AID330 (DTP/NCI, 2004)
“And” between values parts separate entries of the source, which are not always exact repeats. Equal values may be shown once. Toxic doses and inconclusive results are not listed. The calls were made as follows: active = survival T/C of 150% or more; inactive = T/C below 125% in these data.

Test system: P388 leukemia ip, CD2F1 mice, survival T/C
Test: NCI In Vivo Anticancer Drug Screen. Data for tumor model P388 Leukemia (intraperitoneal) in CD2F1 (CDF1) mice
Details: endpoint: median survival time, higher = longer survival
In short: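 Mice carrying the transplanted tumor received test compound or vehicle. Survival was recorded in each group, and the value is the treated-group measurement divided by that of the vehicle-treated control group.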

[1] = dose: 100.0 mg/kg/injection, schedule: Q04DX002 (ip), vehicle: saline with Tween-80
[2] = dose: 200.0 mg/kg/injection, schedule: Q04DX002 (ip), vehicle: saline with Tween-80
[3] = dose: 50.0 mg/kg/injection, schedule: Q01DX005 (ip), vehicle: saline with Tween-80
[4] = dose: 100.0 mg/kg/injection, schedule: Q01DX005 (ip), vehicle: saline with Tween-80
[5] = dose: 60.0 mg/kg/injection, schedule: Q01DX005 (ip), vehicle: saline with Tween-80
[6] = dose: 120.0 mg/kg/injection, schedule: Q01DX005 (ip), vehicle: saline with Tween-80
[7] = dose: 50.0 mg/kg/injection, schedule: Q01DX009 (ip), vehicle: saline with Tween-80
[8] = dose: 100.0 mg/kg/injection, schedule: Q01DX009 (ip), vehicle: saline with Tween-80
[9] = dose: 200.0 mg/kg/injection, schedule: Q01DX009 (ip), vehicle: saline with Tween-80
[10] = dose: 25.0 mg/kg/injection, schedule: Q01DX009 (ip), vehicle: saline with Tween-80
[11] = dose: 50.0 mg/kg/injection, schedule: Q01DX009 (ip), vehicle: saline
[12] = dose: 15.0 mg/kg/injection, schedule: Q01DX005 (ip), vehicle: saline with Tween-80
[13] = dose: 30.0 mg/kg/injection, schedule: Q01DX005 (ip), vehicle: saline with Tween-80
[14] = dose: 50.0 mg/kg/injection, schedule: Q01DX005 (ip), vehicle: saline
[15] = dose: 100.0 mg/kg/injection, schedule: Q01DX005 (ip), vehicle: saline
[16] = dose: 200.0 mg/kg/injection, schedule: Q01DX005 (ip), vehicle: saline

Measured: T/C

C[n+]1ccc(Nc2ccc(O)cc2)c2ccc(Cl)cc21
inactive: dose: 12.5 mg/kg/injection, schedule: Q04DX003 (ip), vehicle: Klucel (hydroxypropylcellulose) (HPC) 100 % of control | dose: 25.0 mg/kg/injection, schedule: Q04DX003 (ip), vehicle: Klucel (hydroxypropylcellulose) (HPC) 116 % of control and 92 % of control | dose: 50.0 mg/kg/injection, schedule: Q01DX005 (ip), vehicle: saline + Tween-80 + alcohol 112 % of control | dose: 50.0 mg/kg/injection, schedule: Q04DX003 (ip), vehicle: Klucel (hydroxypropylcellulose) (HPC) 101 % of control and 95 % of control | dose: 100.0 mg/kg/injection, schedule: Q01DX005 (ip), vehicle: saline + Tween-80 + alcohol 110 % of control | dose: 100.0 mg/kg/injection, schedule: Q04DX003 (ip), vehicle: Klucel (hydroxypropylcellulose) (HPC) 109 % of control and 112 % of control | dose: 200.0 mg/kg/injection, schedule: Q01DX005 (ip), vehicle: saline + Tween-80 + alcohol 114 % of control | dose: 200.0 mg/kg/injection, schedule: Q04DX003 (ip), vehicle: Klucel (hydroxypropylcellulose) (HPC) 120 % of control and 94 % of control

CC1C(=O)NC(=O)CC1c1ccccc1 (configuration not stated)
inactive: [1] 100 % of control | [2] 103 % of control | dose: 400.0 mg/kg/injection, schedule: Q04DX002 (ip), vehicle: saline with Tween-80 95 % of control

CCC(C)C1NC(=O)C2CCCN2C(=O)C(CC2CO2)OC(=O)CCNC(=O)C(C)N(C)C(=O)C(C(C)C)N(C)C1=O (configuration not stated)
inactive: dose: 1.56 mg/kg/injection, schedule: Q01DX005 (ip), vehicle: water 100 % of control | dose: 3.12 mg/kg/injection, schedule: Q01DX005 (ip), vehicle: water 109 % of control

C=C1C(=O)OC2C1CCC(=C)C1CC(O)C(=C)C12 (configuration not stated)
inactive: dose: 9.37 mg/kg/injection, schedule: Q01DX009 (ip), vehicle: suspension in saline 103 % of control | dose: 18.75 mg/kg/injection, schedule: Q01DX009 (ip), vehicle: suspension in saline 119 % of control and 123 % of control | dose: 37.5 mg/kg/injection, schedule: Q01DX009 (ip), vehicle: suspension in saline 121 % of control

CC(C)(C)CC(C)(C)c1ccc(OCCOc2ccc(C(=O)NCCNC(=O)c3ccc4ccccc4c3O)cc2N)cc1
inactive: dose: 6.25 mg/kg/injection, schedule: Q01DX009 (ip), vehicle: Klucel (hydroxypropylcellulose) (HPC) 102 % of control | dose: 12.5 mg/kg/injection, schedule: Q01DX009 (ip), vehicle: Klucel (hydroxypropylcellulose) (HPC) 114 % of control | dose: 25.0 mg/kg/injection, schedule: Q01DX009 (ip), vehicle: Klucel (hydroxypropylcellulose) (HPC) 102 % of control | dose: 50.0 mg/kg/injection, schedule: Q01DX009 (ip), vehicle: Klucel (hydroxypropylcellulose) (HPC) 98 % of control | dose: 100.0 mg/kg/injection, schedule: Q01DX009 (ip), vehicle: Klucel (hydroxypropylcellulose) (HPC) 102 % of control

Cc1cc(NC(=O)c2ccc(N)cc2)ccc1N=Nc1ccc2c(O)c(N=Nc3ccc(S(=O)(=O)O)cc3C)c(S(=O)(=O)O)cc2c1
inactive: [3] 100 % of control | [4] 90 % of control

Cc1nc(O)c([N+](=O)[O-])c(=O)[nH]1
inactive: dose: 25.0 mg/kg/injection, schedule: Q01DX009 (ip), vehicle: other 99 % of control | dose: 50.0 mg/kg/injection, schedule: Q01DX009 (ip), vehicle: other 98 % of control | dose: 100.0 mg/kg/injection, schedule: Q01DX009 (ip), vehicle: other 110 % of control | dose: 200.0 mg/kg/injection, schedule: Q01DX009 (ip), vehicle: other 102 % of control

Clc1ccc(C=NCCN=Cc2ccc(Cl)c(Cl)c2)cc1Cl
inactive: dose: 100.0 mg/kg/injection, schedule: Q04DX003 (ip), vehicle: saline with Tween-80 90 % of control | dose: 200.0 mg/kg/injection, schedule: Q04DX003 (ip), vehicle: saline with Tween-80 95 % of control | dose: 400.0 mg/kg/injection, schedule: Q04DX003 (ip), vehicle: saline with Tween-80 90 % of control

Cn1c(Cl)cc2nc3ccccc3n2c1=O
inactive: [5] 96 % of control | [6] 94 % of control | dose: 240.0 mg/kg/injection, schedule: Q01DX005 (ip), vehicle: saline with Tween-80 100 % of control

CC(C)C(C(=O)O)N(C(=O)CN)C(=O)Cc1ccccc1 (configuration not stated)
inactive: [7] 95 % of control | [8] 93 % of control | [9] 93 % of control

CC(C)(C)OCC(NC(=O)OC(C)(C)C)C(=O)O (configuration not stated)
inactive: [3] 100 % of control | [4] 103 % of control | dose: 200.0 mg/kg/injection, schedule: Q01DX005 (ip), vehicle: saline with Tween-80 97 % of control

CCCCOCN(COCCCC)c1ccccn1
inactive: [10] 103 % of control | [7] 100 % of control | [11] 111 % of control | [8] 116 % of control | dose: 100.0 mg/kg/injection, schedule: Q01DX009 (ip), vehicle: saline 122 % of control | [9] 116 % of control | dose: 200.0 mg/kg/injection, schedule: Q01DX009 (ip), vehicle: saline 117 % of control

CCc1nc(-c2ccccc2)nc2c1nc(-c1ccc(C)cc1)n2Nc1ccccc1
inactive: dose: 50.0 mg/kg/injection, schedule: Q01DX005 (ip), vehicle: Klucel (hydroxypropylcellulose) (HPC) 88 % of control | dose: 100.0 mg/kg/injection, schedule: Q01DX005 (ip), vehicle: Klucel (hydroxypropylcellulose) (HPC) 90 % of control | dose: 200.0 mg/kg/injection, schedule: Q01DX005 (ip), vehicle: Klucel (hydroxypropylcellulose) (HPC) 89 % of control

Oc1ccccc1C1=CC=NCCN1
inactive: [12] 96 % of control | [13] 101 % of control | [5] 101 % of control

CCCCCCCCCCCCC[N+]1([O-])CCOCC1
inactive: dose: 12.5 mg/kg/injection, schedule: Q01DX009 (ip), vehicle: saline 101 % of control | dose: 25.0 mg/kg/injection, schedule: Q01DX009 (ip), vehicle: saline 100 % of control | [11] 89 % of control and 96 % of control

CCOC(=O)C(Cc1ccccc1Cl)(Cc1ccccc1Cl)c1ccccc1
inactive: dose: 266.0 mg/kg/injection, schedule: Q01DX009 (ip), vehicle: saline with Tween-80 98 % of control | dose: 400.0 mg/kg/injection, schedule: Q01DX009 (ip), vehicle: saline with Tween-80 111 % of control | dose: 600.0 mg/kg/injection, schedule: Q01DX009 (ip), vehicle: saline with Tween-80 96 % of control

NC(N)=NCC[C@H](N)C(=O)O
inactive: [14] 104 % of control | [15] 104 % of control | [16] 97 % of control

NNC(=O)CNc1ccc(F)c(Cl)c1
inactive: [12] 99 % of control | [13] 96 % of control | [5] 94 % of control and 97 % of control | [6] 104 % of control

CNC1C(O)C(NC)C2OC3(O)C(=O)CC(C)OC3OC2C1O (configuration not stated)
inactive: dose: 50.0 mg/kg/injection, schedule: Q04DX002 (ip), vehicle: saline with Tween-80 101 % of control | [15] 101 % of control | [1] 101 % of control | [16] 100 % of control | [2] 98 % of control

Nc1nccc(NCCCCCCNc2ccnc(N)n2)n1
inactive: dose: 12.5 mg/kg/injection, schedule: Q04DX002 (ip), vehicle: saline 104 % of control and 108 % of control | dose: 25.0 mg/kg/injection, schedule: Q04DX002 (ip), vehicle: saline 106 % of control and 114 % of control | dose: 50.0 mg/kg/injection, schedule: Q04DX002 (ip), vehicle: saline 105 % of control and 114 % of control | dose: 100.0 mg/kg/injection, schedule: Q04DX002 (ip), vehicle: saline 114 % of control and 119 % of control | dose: 200.0 mg/kg/injection, schedule: Q04DX002 (ip), vehicle: saline 116 % of control and 123 % of control

O=C1c2cscc2C(=O)c2cscc21
inactive: dose: 12.5 mg/kg/injection, schedule: Q01DX009 (ip), vehicle: saline with Tween-80 98 % of control | [10] 100 % of control | [7] 96 % of control | [8] 94 % of control

COC(=O)C(N)COC(=O)c1ccccc1 (configuration not stated)
inactive: [14] 101 % of control | [15] 100 % of control | [16] 100 % of control
